Laboratory results taken from paper PMC6030199, “The mitochondrial citrate carrier, SLC25A1, drives stemness and therapy resistance in non-small cell lung cancer” (Cell Death and Differentiation, 2018).

Biological target: T1, SLC25A1 (mitochondrial citrate carrier) (Homo sapiens, UniProt P53007)
T1 construct: Histidine-tagged recombinant purified SLC25A1
Assay: SPR (Biacore […], NTA chip, […] steady-state fit)
Assay type: binding

T1 sequence (P53007 14-311): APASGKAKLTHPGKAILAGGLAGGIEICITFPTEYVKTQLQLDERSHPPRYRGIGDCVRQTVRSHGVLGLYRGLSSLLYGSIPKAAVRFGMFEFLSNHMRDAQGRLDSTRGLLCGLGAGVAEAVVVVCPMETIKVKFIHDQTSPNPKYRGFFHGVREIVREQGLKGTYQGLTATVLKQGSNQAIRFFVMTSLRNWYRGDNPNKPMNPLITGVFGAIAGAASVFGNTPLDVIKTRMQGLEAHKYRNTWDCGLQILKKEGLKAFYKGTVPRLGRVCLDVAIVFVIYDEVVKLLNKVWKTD

| SMILES | Kd |
| --- | --- |
| O=C(O)c1ccc(Cl)c(S(=O)(=O)Nc2cccc([N+](=O)[O-])c2)c1 [CTPI-1] | 63.6 µM |
| O=C(O)c1ccccc1NS(=O)(=O)c1ccc(Cl)c([N+](=O)[O-])c1 [CTPI-2] | 3.5 µM |
